{"source": "patent US20230301298A1", "about": "“Biocide Compositions” (BASF SE, priority 2020, published 2023)", "key": {"[1]": {"test": "Solubility of biocide in two-component solvent system (A1:A2)", "type": "physicochemical", "protocol": "Component (A1) and component (A2) were mixed and heated to a temperature in the range of 20° C. to 100° C. to obtain a solution. Respective amount of the biocide was charged to the above solution at a temperature in the range of 20° C. to 100° C. to obtain the solution containing biocide. Emulsifier and other optional ingredients were charged o to the above biocide containing solution to obtain the emulsifiable composition (C)."}, "[2]": {"test": "Solubility of azoxystrobin in three components solvent system", "type": "physicochemical", "protocol": "Component (A1) and component (A2) were mixed and heated to a temperature in the range of 20° C. to 100° C. to obtain a solution. Respective amount of the biocide was charged to the above solution at a temperature in the range of 20° C. to 100° C. to obtain the solution containing biocide. Emulsifier and other optional ingredients were charged o to the above biocide containing solution to obtain the emulsifiable composition (C). It is evident from table 1 to 5 that the biocides can be solubilised in a combination of at least one component (A1) and at least one component (A2) and which can be further formulated to stable emulsion concentrate. It can be inferred from table 4 that the tebuconazole can be formulated to an emulsifiable concentrate compared to suspension concentrate or emulsion concentrate in aromatic solvent system. Further, table 5 discloses that a three components solvent system also aids in solubilizing the biocides or adding water to two-components solvent system can improve the solubility of the biocide(s)."}, "[3]": {"conditions": "solvent system 2-phenylethanol : Formic acid, molar ratio 1:2"}, "[4]": {"conditions": "solvent system 2-phenylethanol : Formic acid, molar ratio 2:1"}, "[5]": {"conditions": "solvent system 2-phenylethanol : Methyl salicylate, molar ratio 1:1"}, "[6]": {"conditions": "solvent system 2-phenylethanol : Methyl salicylate, molar ratio 2:1"}, "[7]": {"conditions": "solvent system 4-methylcyclohexanol : Methyl salicylate, molar ratio 1:2"}, "[8]": {"conditions": "solvent system Cyclohexanol : D,L-Lactic acid, molar ratio 1:1"}, "[9]": {"conditions": "solvent system Thymol : Phenyl acetic acid, molar ratio 2:1"}, "[10]": {"conditions": "solvent system formic acid : Methyl salicylate, molar ratio 2:1"}}, "note": "Several values for one entry are separate records, joined by “and”; a condition that tells them apart may be missing. Equal values may be shown once."}
{"molecule": "CO/C=C(/C(=O)OC)c1ccccc1Oc1cc(Oc2ccccc2C#N)ncn1", "note": "[Azoxystrobin]", "values": [{"measurement": "Solubility wt. % in total (C)", "setting": "[1]; solvent system 2-phenoxyethanol : D,L-Lactic acid, molar ratio 1:1", "result": 36, "unit": "wt. %"}, {"measurement": "Solubility wt. % in total (C)", "setting": "[1]; solvent system 2-phenoxyethanol : D,L-lactic acid, molar ratio 1:2", "result": 20, "unit": "wt. %"}, {"measurement": "Solubility wt. % in total (C)", "setting": "[1]; solvent system 2-phenoxyethanol : Methyl salicylate, molar ratio 1:1", "result": 19, "unit": "wt. %"}, {"measurement": "Solubility wt. % in total (C)", "setting": "[1]; solvent system 2-phenoxyethanol : Veratrole, molar ratio 2:1", "result": 23, "unit": "wt. %"}, {"measurement": "Solubility wt. % in total (C)", "setting": "[1]; solvent system 2-phenylethanol : D,L-Lactic acid, molar ratio 1:1", "result": 25, "unit": "wt. %"}, {"measurement": "Solubility wt. % in total (C)", "setting": "[1]; solvent system 2-phenylethanol : D,L-Lactic acid, molar ratio 2:1", "result": 22, "unit": "wt. %"}, {"measurement": "Solubility wt. % in total (C)", "setting": "[1]; [3]", "result": 20, "unit": "wt. %"}, {"measurement": "Solubility wt. % in total (C)", "setting": "[1]; [4]", "result": 20, "unit": "wt. %"}, {"measurement": "Solubility wt. % in total (C)", "setting": "[1]; [5]", "result": 27, "unit": "wt. %"}, {"measurement": "Solubility wt. % in total (C)", "setting": "[1]; solvent system 2-phenylethanol : Methyl salicylate, molar ratio 1:2", "result": "25 wt. % and 24 wt. %"}, {"measurement": "Solubility wt. % in total (C)", "setting": "[1]; [6]", "result": "27 wt. % and 23 wt. %"}, {"measurement": "Solubility wt. % in total (C)", "setting": "[1]; solvent system 2-phenylethanol : Phenyl acetic acid, molar ratio 2:1", "result": 25, "unit": "wt. %"}, {"measurement": "Solubility wt. % in total (C)", "setting": "[1]; solvent system 4-isopropylbenzylalcohol : Phenyl acetic acid, molar ratio 2:1", "result": 24, "unit": "wt. %"}, {"measurement": "Solubility wt. % in total (C)", "setting": "[1]; solvent system 4-methylcyclohexanol : Hydroxy pivalic acid, molar ratio 2:1", "result": 24, "unit": "wt. %"}, {"measurement": "Solubility wt. % in total (C)", "setting": "[1]; [7]", "result": 20, "unit": "wt. %"}, {"measurement": "Solubility wt. % in total (C)", "setting": "[1]; solvent system Carvacrol : 2-ethylphenol, molar ratio 1:2", "result": "<49", "unit": "wt. %"}, {"measurement": "Solubility wt. % in total (C)", "setting": "[1]; [8]", "result": 20, "unit": "wt. %"}, {"measurement": "Solubility wt. % in total (C)", "setting": "[1]; solvent system Cyclohexanol : D,L-Lactic acid, molar ratio 1:2", "result": 20, "unit": "wt. %"}, {"measurement": "Solubility wt. % in total (C)", "setting": "[1]; solvent system Cyclohexanol : Hydroxy pivalic acid, molar ratio 2:1", "result": 21, "unit": "wt. %"}, {"measurement": "Solubility wt. % in total (C)", "setting": "[1]; solvent system D,L-Lactic acid : 1,2-dimethoxy benzene, molar ratio 2:1", "result": 32, "unit": "wt. %"}, {"measurement": "Solubility wt. % in total (C)", "setting": "[1]; solvent system D,L-Lactic acid : 2-phenoxyethanol, molar ratio 1:1", "result": 23, "unit": "wt. %"}, {"measurement": "Solubility wt. % in total (C)", "setting": "[1]; solvent system D,L-Lactic acid : 4-acetylanisole, molar ratio 2:1", "result": 22, "unit": "wt. %"}, {"measurement": "Solubility wt. % in total (C)", "setting": "[1]; solvent system D,L-Lactic acid : 4-isopropylbenzyl alcohol, molar ratio 2:1", "result": 33, "unit": "wt. %"}, {"measurement": "Solubility wt. % in total (C)", "setting": "[1]; solvent system D,L-Lactic acid : Veratrole, molar ratio 2:1", "result": 24, "unit": "wt. %"}, {"measurement": "Solubility wt. % in total (C)", "setting": "[1]; solvent system Formic acid : 1,2-dimethoxy benzene, molar ratio 2:1", "result": 49, "unit": "wt. %"}, {"measurement": "Solubility wt. % in total (C)", "setting": "[1]; solvent system Thymol : (L)-menthol, molar ratio 1:1", "result": 28, "unit": "wt. %"}, {"measurement": "Solubility wt. % in total (C)", "setting": "[1]; [9]", "result": 60, "unit": "wt. %"}, {"measurement": "Solubility wt. % in total (C)", "setting": "[1]; solvent system formic acid : Methyl salicylate, molar ratio 1:2", "result": 27, "unit": "wt. %"}, {"measurement": "Solubility wt. % in total (C)", "setting": "[1]; [10]", "result": 40, "unit": "wt. %"}, {"measurement": "Solubility of Azoxystrobin wt. % in total (C)", "setting": "[2]; 2-Phenoxyethanol:Methyl Salicylate:Water (tap), molar ratio 1:1:0.5", "result": 24, "unit": "wt. %"}, {"measurement": "Solubility of Azoxystrobin wt. % in total (C)", "setting": "[2]; 2-Phenoxyethanol:Methyl salicylate:D,L-Lactic acid, molar ratio 1:1:2", "result": 29, "unit": "wt. %"}, {"measurement": "Solubility of Azoxystrobin wt. % in total (C)", "setting": "[2]; 2-Phenoxyethanol:Veratrole:D,L-Lactic acid, molar ratio 1:1:2", "result": 21, "unit": "wt. %"}, {"measurement": "Solubility of Azoxystrobin wt. % in total (C)", "setting": "[2]; 2-Phenoxyethanol:Veratrole:Water (tap), molar ratio 1:2:0.5", "result": 25, "unit": "wt. %"}, {"measurement": "Solubility of Azoxystrobin wt. % in total (C)", "setting": "[2]; 2-Phenylethanol:Methyl Salicylate:Water (tap), molar ratio 1:1:0.5", "result": 25, "unit": "wt. %"}, {"measurement": "Solubility of Azoxystrobin wt. % in total (C)", "setting": "[2]; 2-Phenylethanol:phenyl acetic acid:Water (tap), molar ratio 2:1:0.5", "result": 25, "unit": "wt. %"}]}
{"molecule": "CS(=O)(=O)c1ccc(C(=O)C2C(=O)CCCC2=O)c([N+](=O)[O-])c1", "note": "[Mesotrione]", "values": [{"measurement": "Solubility wt. % in total (C)", "setting": "[1]; [9]", "result": 20, "unit": "wt. %"}]}
{"molecule": "CC(C)(C)C(O)(CCc1ccc(Cl)cc1)Cn1cncn1", "note": "(stereo not shown) [Tebuconazole]", "values": [{"measurement": "Solubility wt. % in total (C)", "setting": "[1]; solvent system 2-phenylethanol : Formic acid, molar ratio 1:1", "result": 40, "unit": "wt. %"}, {"measurement": "Solubility wt. % in total (C)", "setting": "[1]; [3]", "result": 40, "unit": "wt. %"}, {"measurement": "Solubility wt. % in total (C)", "setting": "[1]; [4]", "result": 35, "unit": "wt. %"}, {"measurement": "Solubility wt. % in total (C)", "setting": "[1]; [5]", "result": 38, "unit": "wt. %"}, {"measurement": "Solubility wt. % in total (C)", "setting": "[1]; [6]", "result": 42, "unit": "wt. %"}, {"measurement": "Solubility wt. % in total (C)", "setting": "[1]; [7]", "result": 35, "unit": "wt. %"}, {"measurement": "Solubility wt. % in total (C)", "setting": "[1]; [8]", "result": 47, "unit": "wt. %"}, {"measurement": "Solubility wt. % in total (C)", "setting": "[1]; solvent system Cyclohexanol : Methyl salicylate, molar ratio 1:2", "result": 38, "unit": "wt. %"}, {"measurement": "Solubility wt. % in total (C)", "setting": "[1]; [9]", "result": 36, "unit": "wt. %"}, {"measurement": "Solubility wt. % in total (C)", "setting": "[1]; [10]", "result": 50, "unit": "wt. %"}]}
